Data taken from patent US20260184702A1, “SYNTHESIS, PHARMACOLOGY AND USE OF NEW WATER-SOLUBLE AND SELECTIVE FMS-LIKE TYROSINE KINASE3 (FLT3) INHIBITORS” (Universität Regensburg, priority 2022, published 2026).
Values after ≈ are worked out from the molar mass of the structure shown.

Assays:
[1] = Solubility test by UV-Vis spectroscopy of saturated solutions; format: physicochemical; conditions: for Solubility Ethanol [g/L] / Solubility Water [g/L]: saturated solution; for Solubility Water [g/L]: ultrapure water
In short: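 Solubility was measured by UV-Vis spectroscopy on an Agilent Cary 60 over 800-200 nm, using a scan rate of 300.0 nm/min, a 0.50 nm data interval, 0.10 s averaging time and a 10 mm cuvette. Filtered saturated supernatants were diluted into water:ethanol, read at the long-wave absorbance maximum against a calibration curve of at least 6 concentrations, in triplicate.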

[2] = tested on: subcutaneous MV4-11 CDX model; conditions: female, NOD/SCID, mouse, in vivo, 5 days
[3] = tested on: EOL-1 (acute myeloid eosinophilic leukemia); conditions: Sellmer et al. 2020; cited from earlier work
[4] = tested on: MOLM-13 (acute myeloid leukemia); conditions: Sellmer et al. 2020; cited from earlier work
[5] = tested on: MONO-MAC-1 (acute monocytic leukemia); conditions: Sellmer et al. 2020; cited from earlier work
[6] = tested on: MONO-MAC-6 (acute monocytic leukemia); conditions: Sellmer et al. 2020; cited from earlier work
[7] = tested on: subcutaneous MV4-11 CDX model; assay: In vivo efficacy study in subcutaneous MV4-11 CDX model in NOD/SCID mice; conditions: 50 mg/kg po daily 5 days

For CC(C)(C)c1cc(NC(=O)Nc2ccc(-c3cn4c(n3)sc3cc(OCCN5CCOCC5)ccc34)cc2)no1 [Quizartinib, reference compound], the solubility ([1]; DMSO, organic solvent or mixture, solvent DMSO, read-out: Solubility DMSO) was 33.2 mg/mL (≈ 59.2 mM), the “Solubility Ethanol [g/L]” value [1] was “no or at most very poor solubility” and the “Solubility Ethanol [g/L]” value ([1]; listed as AC220) was “Practical”. The “Solubility Water [g/L]” value [1] was “no or at most very poor solubility”, the “Solubility Water [g/L]” value ([1]; listed as AC220) was “Practical” and the “study day after which mice had to be sacrificed” value [2] was 6 days. For the same compound, the IC50 [3] was 0.0001 µM, the IC50 [4] was 0.007 µM and the IC50 [5] was 0.006 µM. The IC50 [6] was 0.004 µM, the “first death(s) (day of study)” value [7] was 600000 s and the “number of living subjects, day of study 5” value ([7]; 5 mice) was 5. The “number of living subjects, day of study 6” value ([7]; 5 mice) was 5, the “number of living subjects, day of study 8” value ([7]; 5 mice) was 3 and the “number of living subjects, day of study 13” value ([7]; 5 mice) was 3. For the same compound, the “number of living subjects, day of study 26” value ([7]; 5 mice) was 3 and the “number of living subjects, day of study 36” value ([7]; 5 mice) was 3.
